Measured values as given in PubChem BioAssay (NCI).
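Here, GI50 denotes the concentration required for 50% inhibition of growth. TGI marks complete inhibition of growth.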

Columns and labels:
Assay in all cases: NCI-60 cell line screen, 384-well format; in the data active means GI50 below about 0.43 µM; inactive means the rest
HCT-116 colon = tested on: HCT-116 colon
NCI-H226 lung = tested on: NCI-H226 lung
NCI/ADR-RES ovarian = tested on: NCI/ADR-RES ovarian
MDA-MB-231 breast = tested on: MDA-MB-231 breast
SNB-75 CNS = tested on: SNB-75 CNS
MDA-MB-435 melanoma = tested on: MDA-MB-435 melanoma
RXF 393 renal = tested on: RXF 393 renal
MCF7 breast = tested on: MCF7 breast
SNB-19 CNS = tested on: SNB-19 CNS
HT29 colon = tested on: HT29 colon
EKVX NSCLC = tested on: EKVX NSCLC
LOX IMVI melanoma = tested on: LOX IMVI melanoma
NCI-H522 lung = tested on: NCI-H522 lung
SK-MEL-5 melanoma = tested on: SK-MEL-5 melanoma
SW-620 colon = tested on: SW-620 colon
UACC-257 melanoma = tested on: UACC-257 melanoma
PC-3 prostate = tested on: PC-3 prostate
CAKI-1 renal = tested on: CAKI-1 renal
UACC-62 melanoma = tested on: UACC-62 melanoma
U251 glioblastoma = tested on: U251 glioblastoma
CCRF-CEM leukemia = tested on: CCRF-CEM leukemia
OVCAR-8 ovarian = tested on: OVCAR-8 ovarian
RPMI-8226 leukemia = tested on: RPMI-8226 leukemia
HL-60(TB) leukemia = tested on: HL-60(TB) leukemia
SK-OV-3 ovarian = tested on: SK-OV-3 ovarian
OVCAR-5 ovarian = tested on: OVCAR-5 ovarian
COLO 205 colon = tested on: COLO 205 colon
SN12C renal = tested on: SN12C renal
HCT-15 colon = tested on: HCT-15 colon
MOLT-4 leukemia = tested on: MOLT-4 leukemia

Cn1ncc2cc(-c3cnc(N)c(Cl)c3N3CCC4(CCNC4=O)CC3)ccc21
26.2 µM: TGI (HL-60(TB) leukemia)
31.8 µM: TGI (UACC-257 melanoma)
> 93.3 µM: TGI (SK-OV-3 ovarian)
inactive: GI50 (HCT-116 colon) 29.4 µM | GI50 (NCI-H226 lung) 19.6 µM | GI50 (NCI/ADR-RES ovarian) 31.4 µM | GI50 (MDA-MB-231 breast) 32.8 µM | GI50 (SNB-75 CNS) 58.3 µM | GI50 (MDA-MB-435 melanoma) > 87.5 µM | GI50 (RXF 393 renal) 18.6 µM | GI50 (MCF7 breast) 48.1 µM | GI50 (SNB-19 CNS) 63.1 µM | GI50 (HT29 colon) 16.6 µM | GI50 (EKVX NSCLC) 28.2 µM | GI50 (LOX IMVI melanoma) 39.5 µM | GI50 (NCI-H522 lung) 20.3 µM | GI50 (SK-MEL-5 melanoma) 21.2 µM | GI50 (SW-620 colon) 3.59 µM | GI50 (UACC-257 melanoma) 15.4 µM | GI50 (PC-3 prostate) 28.3 µM | GI50 (CAKI-1 renal) 20.6 µM | GI50 (UACC-62 melanoma) 33.2 µM | GI50 (U251 glioblastoma) 21.3 µM | GI50 (CCRF-CEM leukemia) 14.3 µM | GI50 (OVCAR-8 ovarian) 34.8 µM | GI50 (RPMI-8226 leukemia) 3.6 µM | GI50 (HL-60(TB) leukemia) 13.4 µM | GI50 (SK-OV-3 ovarian) 29.9 µM | GI50 (OVCAR-5 ovarian) 51 µM | GI50 (COLO 205 colon) 48.3 µM | GI50 (SN12C renal) 48.2 µM | GI50 (HCT-15 colon) 22.5 µM | GI50 (MOLT-4 leukemia) 10.8 µM
32.9 µM: TGI (CCRF-CEM leukemia)
27.6 µM: TGI (RPMI-8226 leukemia)
> 59.9 µM: TGI (HT29 colon)
> 91.8 µM: TGI (EKVX NSCLC)
83.4 µM: TGI (HCT-15 colon)
42.9 µM: TGI (RXF 393 renal)
> 96.5 µM: TGI (PC-3 prostate)
48.7 µM: TGI (SK-MEL-5 melanoma)
> 100 µM: TGI (HCT-116 colon) | TGI (MDA-MB-231 breast) | TGI (SNB-75 CNS) | TGI (MDA-MB-435 melanoma) | TGI (MCF7 breast) | TGI (SNB-19 CNS) | TGI (LOX IMVI melanoma) | TGI (NCI-H522 lung) | TGI (U251 glioblastoma) | TGI (OVCAR-8 ovarian) | TGI (OVCAR-5 ovarian) | TGI (COLO 205 colon) | TGI (SN12C renal)
97.6 µM: TGI (UACC-62 melanoma)
53.7 µM: TGI (NCI-H226 lung)
> 83.3 µM: TGI (NCI/ADR-RES ovarian)
> 95.7 µM: TGI (CAKI-1 renal)
17.5 µM: TGI (SW-620 colon)
23.8 µM: TGI (MOLT-4 leukemia)
